One data set deals with IL-1β. The data set is described as follows: PBMC assay: LPS-stimulated IL-1β release. To be noted: Homo sapiens, PBMC, human PBMCs, 30 min compound pre-incubation, 100 ng/ml LPS for 6 hrs, supernatant, MSD. The data set is classed as cell-based. As to the method: (§1) Peripheral venous blood was collected from healthy individuals and human peripheral blood mononuclear cells (PBMCs) were isolated from blood by Ficoll-Histopaque (Sigma-Aldrich, A0561) density gradient centrifugation. After isolation, PBMCs were stored in liquid nitrogen for later use. Upon thawing, PBMC cell viability was determined in growth medium (RPMI media supplemented with 10% fetal bovine serum, 1% Pen-Strep and 1% L-glutamine). Compounds were spotted in a 1:3 serial dilution in DMSO and diluted to the final concentration in 30 µl medium in 96 well plates (Falcon, 353072). PBMCs were added at a density of 7.5 × 10^4 cells per well and incubated for 30 min in a 5% CO2 incubator at 37° C. LPS stimulation was performed by addition of 100 ng/ml LPS (final concentration, Invivogen, tlrl-smlps) for 6 hrs followed by collection of cellular supernatant and the analysis of IL-1β […] and TNF cytokines levels (µM) via MSD technology according to manufacturers’ guidelines (MSD, K151A0H).
(§2) The IC50 values (for IL-1β) and EC50 values (TNF) were obtained on compounds of the invention/examples, and are depicted in the following table: […]

A further data set deals with TNF. Description: PBMC assay: LPS-stimulated TNF cytokine levels. Type of data set: cell-based. To be noted: Homo sapiens, PBMC, human PBMCs, 30 min compound pre-incubation, 100 ng/ml LPS for 6 hrs, supernatant, MSD. The method, then: as §1, §2

pEC50, pIC50: −log10 of the molar value. Bounds are passed on as bounds.

In turn, `CCc1nn(CC(=O)Nc2ccccc2OC)c(=O)c2cccn12` [Compound 13F] returned a melting point of 167.68 °C. In addition, in the data set with IL-1β, the pIC50 is less than 5.00. Moreover, the pEC50 in the data set with TNF is less than 5.00.
The compound `CC(C)c1cc2c(=O)n(CC(=O)Nc3ccncn3)nc(C(C)O)n2c1` (stereo not drawn) [Compound 36F, 2-[4-(1-hydroxyethyl)-7-isopropyl-1-oxo-pyrrolo[1,2-d] [1,2,4]triazin-2-yl]-N-pyrimidin-4-yl-acetamide] returned a melting point of 247.56 °C. Moreover, the negative logarithm of the IC50 (pIC50) in the data set with IL-1β was 5.30. In addition, in the data set with TNF, the pEC50 was less than 5.00.
In the same order, the values of `CC(=O)c1nn(CC(=O)Nc2ccncn2)c(=O)c2cc(C(C)C)cn12` [Compound 35F, 2-(4-acetyl-7-isopropyl-1-oxo-pyrrolo[1,2-d][1,2,4]triazin-2-yl)-N-pyrimidin-4-yl-acetamide] are 284.78 °C, less than 5.00 and less than 5.00.
In the same order, the values of `CC(=O)c1cc2c(=O)n(CC(=O)Nc3ccncn3)nc(C(C)C)n2c1` [Compound 85F, 2-(7-acetyl-4-isopropyl-1-oxopyrrolo[1,2-d][1,2,4]triazin-2(1H)-yl)-N-(pyrimidin-4-yl)acetamide] are 262.3 °C, less than 5.00 and less than 5.00.
For `CCc1cc2c(=O)n(CC(=O)Nc3ccncn3)nc(N(C)CC)n2c1` [Compound 74F], in that order: 156.3 °C, 5.85 and less than 5.00.
`CC(C)c1nn(CC(=O)Nc2ccncn2)c(=O)c2cc(C3CC3)cn12` [Compound 50F] had a melting point of 182.51 °C. In the data set on IL-1β, this compound showed a pIC50 of roughly 6.42. The pEC50 with TNF is less than 5.00.
For `CCCCc1nn(CC(=O)Nc2ccncn2)c(=O)c2cc(C(C)C)cn12` [Compound 61F], in that order: 166.41 °C, 6.00 and less than 5.00.
In the same order, the values of `CC(C)c1cc2c(=O)n(CC(=O)NC3CCOCC3)nc(C(C)C)n2c1` [Compound 51F] are 181.03 °C, roughly 5.75 and less than 5.00.
In the same order, the values of `COCc1nn(CC(=O)Nc2ccncn2)c(=O)c2cc(C(C)C)cn12` [Compound 63F] are 201.37 °C, 5.86 and less than 5.00.

Usually pIC50 stands for the negative decadic logarithm of the IC50, by convention in mol/L. Read a low pIC50 as a high IC50. The pEC50 is the EC50 on a negative log10 scale, so that one unit is a factor of ten. High values mean a small EC50, low ones a large EC50. Usually melting point stands for the temperature, or range, at which the solid turns liquid.

The values are drawn from US20230183248A1, “PYRROLO[1,2-D][1,2,4]TRIAZINE-2-YL-ACETAMIDES AS INHIBITORS OF THE NLRP3 INFLAMMASOME PATHWAY” (JANSSEN PHARMACEUTICA NV, priority 2020, published 2023).
